The results in this text go back to patent US20160229893A1, “Novel Peptide Compound for Inhibiting Restenosis and Promoting Re-Endothelialization and Method for Preparing the Same” (Chonnam National University Hospital, priority 2014, published 2016).

This experiment has as its system vascular smooth muscle cell (SMC). Briefly: Effect on proliferation of vascular smooth muscle cell (SMC), XTT assay. The experiment is classed as cell-based. Particulars: 1 uM; XTT absorbance at 450 nm at 1, 4 and 7 days; versus untreated control (FIG. 1). How it is done:
As cells used in a cell culture, the vascular smooth muscle cell (SMC) which is a smooth muscle cell, and the human umbilical vein endothelial cell (HUVEC) which is the cell for promoting vascular re-endothelialization were purchased from Korea Cell Line Bank, respectively. The cell culture was performed by culturing the vascular smooth muscle cell (SMC) and the human umbilical vein endothelial cell (HUVEC) in Dulbecoco's modified eagle medium (DMEM) with 10% fetal bovine serum (FBS) under conditions of 37° C. and 5% CO2. […]
5×10^4 of SMC cells cultured according to Example 2 were cultured in the 24-well cell culture plate and then treated with 1 uM of the peptide compound prepared by Example 2 (hereinafter, referred to as ‘EVR-P’). […] After the reaction, 200 ul of the culture medium was transferred from each well to a 96 well cell culture dish, and degree of color change was measured from absorbance at a 450 nm wavelength by a spectroscopy.
5×10^4 of SMC cells cultured according to Example 2 were cultured in the 24-well cell culture plate and then treated with 1 uM of the known Everolimus (EVR)(LC Laboratories). […] After the reaction, 200 ul of the culture medium was transferred from each well to the 96 well cell culture dish, and degree of color change was measured from absorbance at a 450 nm wavelength by a spectroscopy.

Turning to `CO[C@H]1C[C@@H]2CC[C@@H](C)[C@@](O)(O2)C(=O)C(=O)N2CCCC[C@H]2C(=O)O[C@H]([C@H](C)C[C@@H]2CC[C@@H](OCCO)[C@H](OC)C2)CC(=O)[C@H](C)/C=C(\C)[C@@H](O)[C@@H](OC)C(=O)[C@H](C)C[C@H](C)/C=C/C=C/C=C/1C` [EVR, Everolimus], the SMC cell proliferation entry is given as “cell proliferation was inhibited”.
